According to PubChem BioAssay (NCI):
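Following 48 hours of exposure in 96-well plates, responses at five concentrations were used to interpolate endpoints linearly. TGI: concentration producing complete growth inhibition.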

Experiments:
Test in all cases: growth of human tumour cells (NCI), 48 h
OVCAR-8 ovarian = test system: OVCAR-8 ovarian
MOLT-4 leukemia = test system: MOLT-4 leukemia
RXF 393 renal = test system: RXF 393 renal
SK-MEL-5 melanoma = test system: SK-MEL-5 melanoma
K-562 leukemia = test system: K-562 leukemia
HL-60(TB) leukemia = test system: HL-60(TB) leukemia
TK-10 renal = test system: TK-10 renal
IGROV1 ovarian = test system: IGROV1 ovarian
SF-268 CNS = test system: SF-268 CNS
A549 NSCLC = test system: A549 NSCLC
UO-31 renal = test system: UO-31 renal
COLO 205 colon = test system: COLO 205 colon
MDA-MB-435 = test system: MDA-MB-435
KM12 colon = test system: KM12 colon
U251 CNS = test system: U251 CNS
MDA-N = test system: MDA-N
SK-MEL-28 melanoma = test system: SK-MEL-28 melanoma
BT-549 breast = test system: BT-549 breast
HOP-62 NSCLC = test system: HOP-62 NSCLC
HCT-116 colon = test system: HCT-116 colon
EKVX NSCLC = test system: EKVX NSCLC
DU-145 prostate = test system: DU-145 prostate
CAKI-1 renal = test system: CAKI-1 renal
OVCAR-3 ovarian = test system: OVCAR-3 ovarian
CCRF-CEM leukemia = test system: CCRF-CEM leukemia
786-0 renal = test system: 786-0 renal
NCI-H522 lung = test system: NCI-H522 lung
MDA-MB-231 breast = test system: MDA-MB-231 breast
NCI/ADR-RES ovarian = test system: NCI/ADR-RES ovarian
A498 renal = test system: A498 renal
SNB-75 CNS = test system: SNB-75 CNS
PC-3 prostate = test system: PC-3 prostate
NCI-H23 lung = test system: NCI-H23 lung
NCI-H460 lung = test system: NCI-H460 lung
MALME-3M melanoma = test system: MALME-3M melanoma
OVCAR-5 ovarian = test system: OVCAR-5 ovarian
SF-295 CNS = test system: SF-295 CNS
NCI-H226 lung = test system: NCI-H226 lung
UACC-257 melanoma = test system: UACC-257 melanoma
MCF7 breast = test system: MCF7 breast
SN12C renal = test system: SN12C renal
SF-539 CNS = test system: SF-539 CNS
SR leukemia = test system: SR leukemia
LOX IMVI melanoma = test system: LOX IMVI melanoma
SNB-19 CNS = test system: SNB-19 CNS
SK-MEL-2 melanoma = test system: SK-MEL-2 melanoma
HOP-92 NSCLC = test system: HOP-92 NSCLC
T-47D breast = test system: T-47D breast
HT29 colon = test system: HT29 colon
RPMI-8226 leukemia = test system: RPMI-8226 leukemia
ACHN renal = test system: ACHN renal
SW-620 colon = test system: SW-620 colon
HCT-15 colon = test system: HCT-15 colon
HCC-2998 colon = test system: HCC-2998 colon
SK-OV-3 ovarian = test system: SK-OV-3 ovarian
OVCAR-4 ovarian = test system: OVCAR-4 ovarian
HS 578T breast = test system: HS 578T breast
M14 melanoma = test system: M14 melanoma
UACC-62 melanoma = test system: UACC-62 melanoma

For `O=[N+]([O-])C(C(Cl)=C(Cl)Cl)=C(n1nnc2ccccc21)n1nnc2ccccc21`, the TGI (OVCAR-8 ovarian) was 48.8 µM, the TGI (MOLT-4 leukemia) was 26.2 µM and the TGI (RXF 393 renal) was 50 µM. For the same compound, the TGI (SK-MEL-5 melanoma) was over 67.8 µM, the TGI (K-562 leukemia) was 30.6 µM and the TGI (HL-60(TB) leukemia) was 13.5 µM. For the same compound, the TGI (TK-10 renal) was over 63.7 µM, the TGI (IGROV1 ovarian) was 60.4 µM and the TGI (SF-268 CNS) was 70 µM. The TGI (A549 NSCLC) was over 72.4 µM, the TGI (UO-31 renal) was 52.6 µM and the TGI (COLO 205 colon) was 51.9 µM. For the same compound, the TGI (MDA-MB-435) was 58.4 µM, the TGI (KM12 colon) was over 70.1 µM and the TGI (U251 CNS) was 62.8 µM. The TGI (MDA-N) was 61.2 µM, the TGI (SK-MEL-28 melanoma) was 64.9 µM and the TGI (BT-549 breast) was 99.6 µM. For the same compound, the TGI (HOP-62 NSCLC) was over 68.4 µM, the TGI (HCT-116 colon) was 50.2 µM and the TGI (EKVX NSCLC) was over 74.6 µM. The TGI (DU-145 prostate) was over 100 µM, the TGI (CAKI-1 renal) was over 54.1 µM and the TGI (OVCAR-3 ovarian) was 62.4 µM. For the same compound, the TGI (CCRF-CEM leukemia) was 43.9 µM, the TGI (786-0 renal) was 20.4 µM and the TGI (NCI-H522 lung) was 38.6 µM. For the same compound, the TGI (MDA-MB-231 breast) was 38.5 µM, the TGI (NCI/ADR-RES ovarian) was 55.9 µM and the TGI (A498 renal) was over 90 µM. For the same compound, the TGI (SNB-75 CNS) was over 58.1 µM, the TGI (PC-3 prostate) was over 67.3 µM and the TGI (NCI-H23 lung) was over 75.5 µM. The TGI (NCI-H460 lung) was over 68.8 µM, the TGI (MALME-3M melanoma) was 49 µM and the TGI (OVCAR-5 ovarian) was over 66.3 µM. It also gave a TGI (SF-295 CNS) of over 67.9 µM, a TGI (NCI-H226 lung) of over 73.9 µM and a TGI (UACC-257 melanoma) of over 68.1 µM. It also gave a TGI (MCF7 breast) of over 55.4 µM, a TGI (SN12C renal) of 56.7 µM and a TGI (SF-539 CNS) of 53.3 µM. The TGI (SR leukemia) was 17.4 µM, the TGI (LOX IMVI melanoma) was over 66.3 µM and the TGI (SNB-19 CNS) was over 100 µM. The TGI (SK-MEL-2 melanoma) was over 65.3 µM, the TGI (HOP-92 NSCLC) was over 81.6 µM and the TGI (T-47D breast) was over 80.6 µM. The TGI (HT29 colon) was 59.6 µM, the TGI (RPMI-8226 leukemia) was 56.4 µM and the TGI (ACHN renal) was over 65.8 µM. The TGI (SW-620 colon) was 16.6 µM, the TGI (HCT-15 colon) was 61.7 µM and the TGI (HCC-2998 colon) was over 67.1 µM. It also gave a TGI (SK-OV-3 ovarian) of over 58 µM, a TGI (OVCAR-4 ovarian) of 66.3 µM and a TGI (HS 578T breast) of 85.6 µM. It also gave a TGI (M14 melanoma) of 50.8 µM and a TGI (UACC-62 melanoma) of over 58.2 µM.
`C1=Nc2ccc(cc2)-c2ccc(cc2)N=Cc2ccc(cc2)OCc2cccc(n2)COc2ccc1cc2` was tested, and the TGI (OVCAR-8 ovarian) was over 100 µM, the TGI (MOLT-4 leukemia) was over 100 µM and the TGI (RXF 393 renal) was over 100 µM. For the same compound, the TGI (SK-MEL-5 melanoma) was over 100 µM, the TGI (K-562 leukemia) was over 100 µM and the TGI (HL-60(TB) leukemia) was over 100 µM. The TGI (IGROV1 ovarian) was over 100 µM, the TGI (SF-268 CNS) was 62.1 µM and the TGI (A549 NSCLC) was over 100 µM. It also gave a TGI (UO-31 renal) of over 100 µM, a TGI (COLO 205 colon) of over 100 µM and a TGI (MDA-MB-435) of over 100 µM. It also gave a TGI (KM12 colon) of over 100 µM, a TGI (U251 CNS) of over 100 µM and a TGI (MDA-N) of over 100 µM. It also gave a TGI (SK-MEL-28 melanoma) of over 100 µM, a TGI (BT-549 breast) of over 100 µM and a TGI (HOP-62 NSCLC) of over 100 µM. It also gave a TGI (HCT-116 colon) of over 100 µM, a TGI (EKVX NSCLC) of over 100 µM and a TGI (DU-145 prostate) of over 100 µM. For the same compound, the TGI (CAKI-1 renal) was over 100 µM, the TGI (OVCAR-3 ovarian) was over 100 µM and the TGI (CCRF-CEM leukemia) was over 100 µM. It also gave a TGI (786-0 renal) of over 100 µM, a TGI (NCI-H522 lung) of over 100 µM and a TGI (MDA-MB-231 breast) of over 100 µM. The TGI (NCI/ADR-RES ovarian) was over 100 µM, the TGI (A498 renal) was over 100 µM and the TGI (SNB-75 CNS) was over 100 µM. The TGI (PC-3 prostate) was over 100 µM, the TGI (NCI-H23 lung) was over 100 µM and the TGI (NCI-H460 lung) was over 100 µM. It also gave a TGI (MALME-3M melanoma) of over 100 µM, a TGI (OVCAR-5 ovarian) of over 100 µM and a TGI (SF-295 CNS) of over 100 µM. For the same compound, the TGI (NCI-H226 lung) was over 100 µM, the TGI (UACC-257 melanoma) was over 100 µM and the TGI (MCF7 breast) was over 100 µM. It also gave a TGI (SN12C renal) of over 100 µM, a TGI (SF-539 CNS) of over 100 µM and a TGI (SR leukemia) of over 100 µM. It also gave a TGI (SNB-19 CNS) of over 100 µM, a TGI (SK-MEL-2 melanoma) of over 100 µM and a TGI (HOP-92 NSCLC) of over 100 µM. The TGI (T-47D breast) was over 100 µM, the TGI (HT29 colon) was over 100 µM and the TGI (RPMI-8226 leukemia) was over 100 µM. It also gave a TGI (ACHN renal) of over 100 µM, a TGI (SW-620 colon) of over 100 µM and a TGI (HCT-15 colon) of over 100 µM. For the same compound, the TGI (SK-OV-3 ovarian) was over 100 µM, the TGI (OVCAR-4 ovarian) was over 100 µM and the TGI (HS 578T breast) was 73.2 µM. For the same compound, the TGI (M14 melanoma) was over 100 µM and the TGI (UACC-62 melanoma) was over 100 µM.
`O=[N+]([O-])c1cccc(-c2cn3c(n2)Cc2ccccc2C3)c1` was tested, and the TGI (OVCAR-8 ovarian) was over 100 µM, the TGI (MOLT-4 leukemia) was over 100 µM and the TGI (RXF 393 renal) was over 100 µM. It also gave a TGI (SK-MEL-5 melanoma) of over 100 µM, a TGI (K-562 leukemia) of over 100 µM and a TGI (HL-60(TB) leukemia) of over 100 µM. It also gave a TGI (TK-10 renal) of over 100 µM, a TGI (IGROV1 ovarian) of over 100 µM and a TGI (SF-268 CNS) of over 100 µM. It also gave a TGI (A549 NSCLC) of over 100 µM, a TGI (UO-31 renal) of over 100 µM and a TGI (COLO 205 colon) of over 100 µM. It also gave a TGI (MDA-MB-435) of over 100 µM, a TGI (KM12 colon) of over 100 µM and a TGI (U251 CNS) of over 100 µM. The TGI (MDA-N) was over 100 µM, the TGI (SK-MEL-28 melanoma) was over 100 µM and the TGI (BT-549 breast) was over 100 µM. It also gave a TGI (HOP-62 NSCLC) of over 100 µM, a TGI (HCT-116 colon) of over 100 µM and a TGI (EKVX NSCLC) of over 100 µM. The TGI (DU-145 prostate) was over 100 µM, the TGI (CAKI-1 renal) was 58.2 µM and the TGI (CCRF-CEM leukemia) was over 100 µM. For the same compound, the TGI (786-0 renal) was over 100 µM, the TGI (NCI-H522 lung) was over 100 µM and the TGI (MDA-MB-231 breast) was 67.6 µM. The TGI (NCI/ADR-RES ovarian) was over 100 µM, the TGI (A498 renal) was over 100 µM and the TGI (SNB-75 CNS) was over 100 µM. For the same compound, the TGI (PC-3 prostate) was over 100 µM, the TGI (NCI-H23 lung) was over 100 µM and the TGI (NCI-H460 lung) was over 100 µM. The TGI (MALME-3M melanoma) was over 100 µM, the TGI (OVCAR-5 ovarian) was 79.9 µM and the TGI (SF-295 CNS) was over 100 µM. For the same compound, the TGI (NCI-H226 lung) was over 100 µM, the TGI (UACC-257 melanoma) was over 100 µM and the TGI (MCF7 breast) was over 100 µM. The TGI (SN12C renal) was over 100 µM, the TGI (SF-539 CNS) was over 100 µM and the TGI (SR leukemia) was over 100 µM. For the same compound, the TGI (LOX IMVI melanoma) was over 100 µM, the TGI (SNB-19 CNS) was over 100 µM and the TGI (SK-MEL-2 melanoma) was over 100 µM. It also gave a TGI (HOP-92 NSCLC) of over 100 µM, a TGI (T-47D breast) of over 100 µM and a TGI (HT29 colon) of over 100 µM. It also gave a TGI (ACHN renal) of over 100 µM, a TGI (SW-620 colon) of over 100 µM and a TGI (HCT-15 colon) of over 100 µM. It also gave a TGI (SK-OV-3 ovarian) of over 100 µM, a TGI (OVCAR-4 ovarian) of over 100 µM and a TGI (HS 578T breast) of over 100 µM. For the same compound, the TGI (M14 melanoma) was over 100 µM and the TGI (UACC-62 melanoma) was over 100 µM.
